Reference: patent US12168008B2, “Oxabicycloheptanes for modulation of immune response” (LIXTE BIOTECHNOLOGY, INC., priority 2016, dated 2024)

Columns and labels:
PP2A = PP2A phosphatase assay in activated T cells; assay type: cell-based, mouse; settings: 3 hours after stimulation with CD3 and CD28; greater effect in CD8
Protocol: LB-100 inhibits PP2A activity and enhances mTORC1 activation: PP2A enzymatic activity of isolated CD4 and CD8 cells from mice splenocytes were measured 3 hours after in vitro stimulation with plated CD3 and soluble CD28.
PP2A phosphatase assay—Mouse CD4+ and CD8+ T cells were isolated with CD4 and CD8 isolation kit (StemCell) respectively. Cells were activated using immobilized anti-CD3 (10 ug/ml) and soluble anti-CD28 (2 ug/ml) for three hour. PP2A activity was then evaluated after immunoprecipitation using a malachite green phosphatase assay kit as per the manufacturer's instructions (EMD Millipore).

B16F10 cells = test: B16F10 melanoma tumor prevention model; assay type: in vivo, mouse; settings: day 15 after tumor implantation
Protocol: LB-100 and aPD-1 enhance anti-tumor activity in B16 melanoma without histologic evidence of autoimmunity: It was next determined whether LB-100/aPD-1 combination was effective against other aPD-1 resistant tumor. In a tumor prevention model, 6-8 weeks old C57BL/6 mice were randomized into four treatment groups: PBS, LB-100, aPD-1 and combination. B16F10 cells (2.5×10^5) were inoculated 2 days after initiation of treatment subcutaneously in the right thoracic flank. Treatments were administered every two days following survival (FIG. 34A). By day 15 after tumor implantation, there was no difference between control and the single agent arms.
Syngeneic tumor models—Mice were maintained and experiments were conducted with the approval of the NINDS Animal Use and Care Committees. For CT26 tumors: BALB/c (6-8 wk old) were purchased from Charles River Laboratory. CT26 cells (0.5×10^6) were injected into the right flank subcutaneously. […] Treatments were given every 2 days for 30 days. […]

CN1CCN(C(=O)C2C(C(=O)O)[C@H]3CC[C@@H]2O3)CC1 (some centres unmarked) [LB-100]
PP2A enzymatic activity in CD4 and CD8 cells (PP2A): dose dependent decrease
tumor size, single agent arms vs control (B16F10 cells): no difference
